Source: article PMC3893073, “Structural and Functional Analyses of a Sterol Carrier Protein in Spodoptera litura” (PLoS ONE, 2014)
“Also recorded” adds a separate entry of the source. Like-named read-outs stand apart in the source and are kept apart here. One block for each compound: values may come before it.

How the values were obtained:
S. litura larvae = experiment: Diet bioassay for inhibition of growth of S. litura larvae; type: in vivo, Spodoptera litura; conditions: for inhibitory effect on the growth of S. litura larvae: newly hatched larvae, artificial diet with 3, 12 and 48 µg/g diet; for body weight of the treated larvae: 13 days post egg hatching, increasing concentrations 3, 12, 48 µg/g diet, compared to the control
Method: Newly hatched S. litura larvae (30 larvae per treatment) were reared in artificial diet in presence of each chemical at different concentrations of 3, 12 and 48 µg/g diet. Control larvae were fed in the diet with diluted acetone (solvent for the chemical). Fresh diet was provided every other day. Larvae development was monitored until pupation. Larvae were weighted at 13 days post egg hatching when most of the larvae were at 5th instar stage.

SlSCPx-2 = SlSCPx-2 (Spodoptera litura, UniProt D1GJ60); experiment: 1,8-ANS fluorescence displacement (competitive binding) assay, wild type rSlSCPx-2; conditions: for RBAchol / RBApal: IC50 of wild type for the same ligand (=100%)
Method: Binding of the fluorescent probe 1, 8-ANS to sterol carrier protein (SlSCPx-2) is measured by relative increase in fluorescent intensity. Steady-state fluorescence spectra were measured on a Cary Eclipse fluorescence spectrophotometer (Varian, Mulgrave, Australia) using a 1-cm path length cuvette. The binding was monitored by measuring the fluorescence signal between 400 and 600 nm following excitation at 350 nm. Slit widths were set to 5 and 10 nm for the excitation and emission monochromators, respectively. […] All measurements were performed at room temperature and the samples were equilibrated for 5 min prior to measurement. At each of the given concentrations, at least three replicates were performed.
(§1) After the incubation, each potential ligand at a serial of concentration (0–100 µM) was added into the 1, 8-ANS-protein mixture for another 2.5 min and the fluorescence intensity of the 1,8-ANS-protein complex was measured as previously described. The control was the reaction of ANS probe and a series of concentration (0–100 µM) of ligands without the protein. To calculate binding activity of the ligands and the protein, the fluorescence intensity of the controls were subtracted from the total fluorescence intensity of the 1, 8-ANS-protein complex in the presence of ligands tested. Each ligand replacement assay was repeated for three times.

H. armigera neonates = conditions: cited from earlier work
A. aegypti = tested on: A. aegypti; parameters: method as in PMID 15627652; conditions: cited from earlier work
SlSCPx-2 I115M = SlSCPx-2 I115M (Spodoptera litura, UniProt D1GJ60, I505M); experiment: biochemical; type: binding
Method: (§2) Binding of the fluorescent probe 1, 8-ANS to SlSCPx-2 can be competed with physiological ligands. SlSCPx-2 at 15 µM was incubated with 1, 8-ANS at 15 µM in the reaction buffer (pH 7.0) at room temperature for 2.5 min. […] […] To calculate binding activity of the ligands and the protein, the fluorescence intensity of the controls were subtracted from the total fluorescence intensity of the 1, 8-ANS-protein complex in the presence of ligands tested. Each ligand replacement assay was repeated for three times.
(§3) Various mutations in His-tagged SlSCPx-2 were constructed by using the Stratagene QuickChange Site-Directed Mutagenesis Kit (TAKARA, Dalian, China). Recombined plasmid containing SlSCPx-2 fused with the His-Tag sequence in a pPROEXTM HTa vector was used as a template. Two complementary primer pairs containing the desired mutations were used to construct each gene mutant. All mutant sequences were confirmed by DNA sequencing. The binding affinity of the mutants with the various ligands was examined using the fluorescence displacement assay as described above.

SlSCPx-2 F89A = SlSCPx-2 F89A (Spodoptera litura, UniProt D1GJ60, F479A); experiment: biochemical; type: binding
Method: as §2, §3

SlSCPx-2 F53A = SlSCPx-2 F53A (Spodoptera litura, UniProt D1GJ60, F443A); experiment: biochemical; type: binding
Method: as §2, §3

SlSCPx-2 F110W = SlSCPx-2 F110W (Spodoptera litura, UniProt D1GJ60, F500W); experiment: biochemical; type: binding
Method: as §2, §3

SlSCPx-2 F53W = SlSCPx-2 F53W (Spodoptera litura, UniProt D1GJ60, F443W); experiment: biochemical; type: binding
Method: as §2, §3

SlSCPx-2 Q131A = SlSCPx-2 Q131A (Spodoptera litura, UniProt D1GJ60, Q521A); experiment: biochemical; type: binding
Method: as §2, §3

SlSCPx-2 W66E = SlSCPx-2 W66E (Spodoptera litura, UniProt D1GJ60, W456E); experiment: biochemical; type: binding
Method: as §2, §3

SlSCPx-2 T128A = SlSCPx-2 T128A (Spodoptera litura, UniProt D1GJ60, T518A); experiment: biochemical; type: binding
Method: as §1, with “Binding of the fluorescent probe 1, 8-ANS to SlSCPx-2 can be competed with physiological ligands. SlSCPx-2 at 15 µM was incubated with 1, 8-ANS at 15 µM in the reaction buffer (pH 7.0) at room temperature for 2.5 min. After” for “After”
as §3

SlSCPx-2 F89W = SlSCPx-2 F89W (Spodoptera litura, UniProt D1GJ60, F479W); experiment: biochemical; type: binding
Method: as §1, with “Binding of the fluorescent probe 1, 8-ANS to SlSCPx-2 can be competed with physiological ligands. SlSCPx-2 at 15 µM was incubated with 1, 8-ANS at 15 µM in the reaction buffer (pH 7.0) at room temperature for 2.5 min. After” for “After”
as §3

SlSCPx-2 F110A = SlSCPx-2 F110A (Spodoptera litura, UniProt D1GJ60, F500A); experiment: biochemical; type: binding
Method: as §1, with “Binding of the fluorescent probe 1, 8-ANS to SlSCPx-2 can be competed with physiological ligands. SlSCPx-2 at 15 µM was incubated with 1, 8-ANS at 15 µM in the reaction buffer (pH 7.0) at room temperature for 2.5 min. After” for “After”
as §3

[1] = wild type, displacement of 15 µM 1,8-ANS from 15 µM SlSCPx-2, pH 7.0, read-out: IC50
[2] = IC50 of cholesterol (=100%) divided by IC50 of each chemical

Compound: C=CCc1cccc(/C=N/NC(=O)COc2ccccc2C)c1O [AG-205/07775053]
inhibitory effect on the growth of S. litura larvae (S. litura larvae): inhibited the growth; also recorded: high inhibitory effect; also recorded: had inhibitory effect
RBA (relative binding affinity) (SlSCPx-2): 0.6%
IC50 (SlSCPx-2; [1]): 8630 ± 393 µM

Compound: CCCCCCOC(=O)c1ccc(NC(=O)CCC)cc1 [AG-205/36813059]
inhibitory effect on the growth of S. litura larvae (S. litura larvae): inhibited the growth; also recorded: a certain degree of biological activity; also recorded: had inhibitory effect
RBA (relative binding affinity) (SlSCPx-2): 210%
IC50 (SlSCPx-2; [1]): 23.9 ± 1.38 µM

Compound: Cc1cc(OCCCCc2c(C)n[nH]c2C)ccc1Cl [AG-664/14117324]
body weight of the treated larvae (S. litura larvae): decreased, significantly
inhibitory effect on the growth of S. litura larvae (S. litura larvae): inhibited the growth; also recorded: had inhibitory effect
RBA (relative binding affinity) (SlSCPx-2): 1943%
IC50 (SlSCPx-2; [1]): 2.58 ± 0.2 µM

Compound: CCc1ccc(C(=O)/C=C/Nc2ccc(NC(C)=O)cc2)cc1 [AH-487/41731687]
body weight of the treated larvae (S. litura larvae): decreased, significantly
inhibitory effect on the growth of S. litura larvae (S. litura larvae): inhibited the growth; also recorded: had inhibitory effect
RBA (relative binding affinity) (SlSCPx-2): 1166%
IC50 (SlSCPx-2; [1]): 4.3 ± 0.63 µM

Compound: CC(=O)Nc1ccc(Nc2nc(-c3ccc(Cl)c(Cl)c3)cs2)cc1 [AeSCPI-1, reference compound]
lethality to H. armigera neonates (H. armigera neonates): lethal
RBA (relative binding affinity) (SlSCPx-2): 31%
IC50 (SlSCPx-2; [1]): 161 ± 5.03 µM
time to kill the larvae post the treatment (A. aegypti; A. aegypti larvae): ≤ 3 days

Compound: COc1cccc(-n2sc3c(c2=S)-c2cc(Cl)ccc2NC3(C)C)c1 [AeSCPI-2, reference compound]
RBA (relative binding affinity) (SlSCPx-2): 91%
IC50 (SlSCPx-2; [1]): 55 ± 0.66 µM
mortality in A. aegypti (A. aegypti): caused death at larva-to-pupa transition period

IC50 (SlSCPx-2): 18.1 ± 0.83 µM
RBA (relative binding affinity) (SlSCPx-2; [2]): 277%
Compound: CCCCC/C=C\C/C=C\C/C=C\C/C=C\CCCC(=O)O [Arachidonate, arachidonic acid]

Compound: CC(C)CCC[C@@H](C)[C@H]1CC[C@H]2[C@@H]3CC=C4C[C@@H](O)CC[C@]4(C)[C@H]3CC[C@]12C [Cholesterol, reference compound]
IC50 (SlSCPx-2 I115M): 34.3 ± 1.53 µM
IC50 (SlSCPx-2 F89A): 1743 ± 1.3 µM
IC50 (SlSCPx-2 F53A): 7300 ± 280 µM
IC50 (SlSCPx-2 F110W): 231 ± 2.36 µM
IC50 (SlSCPx-2 F53W): 4669 ± 23.2 µM
IC50 (SlSCPx-2 Q131A): 2690 ± 34.2 µM
IC50 (SlSCPx-2 W66E): 974 ± 10.7 µM
IC50 (SlSCPx-2 T128A): 20.8 ± 1.32 µM
IC50 (SlSCPx-2 F89W): 5.58 ± 1.23 µM
RBAchol / RBApal (SlSCPx-2; wild type): 100%
IC50 (SlSCPx-2; [1]): 50.1 ± 0.8 µM

Compound: CC(C)[C@@H](C)/C=C/[C@@H](C)[C@H]1CC[C@H]2C3=CC=C4C[C@@H](O)CC[C@]4(C)[C@H]3CC[C@]12C [Ergosterol]
IC50 (SlSCPx-2): 167.6 ± 0.34 µM
RBA (relative binding affinity) (SlSCPx-2): 30%

Compound: CCCCC/C=C\C/C=C\CCCCCCCC(=O)O [Linoleic acid]
RBA (relative binding affinity) (SlSCPx-2): 35%
IC50 (SlSCPx-2; [1]): 143 ± 0.99 µM

RBA (relative binding affinity) (SlSCPx-2; [2]): 23%
IC50 (SlSCPx-2; [1]): 217.9 ± 1.53 µM
Compound: CCCCCCCC(=O)O [Octanoate, reference compound]

Compound: CCCCCCCC/C=C\CCCCCCCC(=O)O [Oleic acid]
IC50 (SlSCPx-2): 24.4 ± 1.14 µM
RBA (relative binding affinity) (SlSCPx-2): 206%

Compound: CCCCCCCCCCCCCCCC(=O)O [Palmitic acid]
IC50 (SlSCPx-2 I115M): 6617 ± 38.2 µM
IC50 (SlSCPx-2 F53A): 71.7 ± 0.84 µM
IC50 (SlSCPx-2 F110W): 503.3 ± 2.7 µM
IC50 (SlSCPx-2 F53W): 5777 ± 28 µM
IC50 (SlSCPx-2 Q131A): 354.8 ± 2.55 µM
IC50 (SlSCPx-2 W66E): 67.3 ± 3.43 µM
IC50 (SlSCPx-2 T128A): 32.8 ± 1.52 µM
IC50 (SlSCPx-2 F89W): 77.5 ± 1.51 µM
IC50 (SlSCPx-2 F110A): 41.7 ± 1.62 µM
RBA (relative binding affinity) (SlSCPx-2): 85%
RBAchol / RBApal (SlSCPx-2; wild type): 100%
IC50 (SlSCPx-2; [1]): 59.1 ± 1.29 µM

Compound: CCCCCCCCCCCCCCCCCC(=O)O [Stearic acid]
RBA (relative binding affinity) (SlSCPx-2): 126%
IC50 (SlSCPx-2; [1]): 39.8 ± 1.17 µM

Compound: CC[C@H](/C=C/[C@@H](C)[C@H]1CC[C@H]2[C@@H]3CC=C4C[C@@H](O)CC[C@]4(C)[C@H]3CC[C@]12C)C(C)C [Stigmasterol]
IC50 (SlSCPx-2): 190 ± 2.29 µM
RBA (relative binding affinity) (SlSCPx-2): 26%
